From US20250326769A1, “HETEROAROMATIC MACROCYCLIC ETHER CHEMOTHERAPEUTIC AGENTS” (Nuvalent, Inc., priority 2022, published 2025)

Columns and labels:
Type in all cases: cell-based
[1] = target: Ba/F3 ETV6-TRKB (Homo sapiens, UniProt Q16620); assay: Ba/F3 cell proliferation assay, ETV6-TRKB; settings: Ba/F3 stable cells, 72 hours, CellTiter-Glo; read-out: ETV6-TRKB IC50
Excerpt: (§1) Genes encoding EML4-ALK v1 (variant 1), EML4-ALK v1 G1202R, EML4-ALK v1 I1171IN, EML4-ALK v1 D1203N, EML4-ALK v1 I1171N/D1203N, and ETV6-TRKB were synthesized at GeneRay, cloned into the retroviral construct pMSCV-puro (Biovector), and packaged into retroviral particles. The virus was used to infect Ba/F3 cells (RIKEN) at multiplicity of infection=1 for 1 day. Infected cells were rescued in media (RPMI-1640 with 10% fetal bovine serum and 1% streptomycin and penicillin) supplemented with mouse IL-3 (10 ng/mL) for 2 days, and stable cell lines were selected by IL-3 withdrawal and puromycin (0.8 μg/mL) for 7 days. Monoclones were selected by single-cell dilution in IL-3-free medium containing puromycin (0.8 μg/mL). Transformation of desired genes was confirmed by Sanger sequencing and western blot using the following antibodies: ALK (CST #3633) and pan-TRK (Abcam #76291).
(§2) Stable cells were plated in a 384-well plate. Test compounds were then added in a 3-fold dilution series and incubated for 72 hours. CellTiter-Glo reagent (Promega) was added. Luminescence was measured on a plate reader. Half-maximal inhibitory concentration (ICso) was calculated from percent inhibition and inhibitor concentration using four-parameter logistic regression. Compound potency can be interpreted by binning IC50 values: bin A for high potency, 0.1 nM IC50<50 nM; bin B for medium potency, 50 nM<IC50<500 nM; and bin C for low potency, IC50>500 nM. […] Exemplary data is given in Table 4 (nd is not determined).
(§3) Ba/F3 proliferation is driven by the transduced oncogenes in the same way that cancer cell proliferation in humans is driven by the expression of equivalent oncogenes.

[2] = target: Ba/F3 EML4-ALK v1 I1171N/D1203N (Homo sapiens (Human), UniProt Q9HC35+Q9UM73, D1203N/I1171N); assay: Ba/F3 cell proliferation assay, EML4-ALK v1 I1171N/D1203N; settings: for IC50: Ba/F3 stable cells, 72 hours, CellTiter-Glo; for ETV6-TRKB / EML4-ALK v1 I1171N/D1203N / Selectivity for Ba/F3 EML4-ALK v1 I1171N-D1203N IC50 over Ba/F3 ETV6-TRKB IC50: TRKB selectivity, ratio of Ba/F3 IC50 values; for Selectivity for Ba/F3 EML4-ALK v1 I1171N-D1203N IC50 over Ba/F3 ETV6-TRKB IC50: Table 6 bins
Chain of Ba/F3 EML4-ALK v1 I1171N/D1203N (Q9UM73 other isoform, or with tags, fused parts or gaps I1171N/D1203N): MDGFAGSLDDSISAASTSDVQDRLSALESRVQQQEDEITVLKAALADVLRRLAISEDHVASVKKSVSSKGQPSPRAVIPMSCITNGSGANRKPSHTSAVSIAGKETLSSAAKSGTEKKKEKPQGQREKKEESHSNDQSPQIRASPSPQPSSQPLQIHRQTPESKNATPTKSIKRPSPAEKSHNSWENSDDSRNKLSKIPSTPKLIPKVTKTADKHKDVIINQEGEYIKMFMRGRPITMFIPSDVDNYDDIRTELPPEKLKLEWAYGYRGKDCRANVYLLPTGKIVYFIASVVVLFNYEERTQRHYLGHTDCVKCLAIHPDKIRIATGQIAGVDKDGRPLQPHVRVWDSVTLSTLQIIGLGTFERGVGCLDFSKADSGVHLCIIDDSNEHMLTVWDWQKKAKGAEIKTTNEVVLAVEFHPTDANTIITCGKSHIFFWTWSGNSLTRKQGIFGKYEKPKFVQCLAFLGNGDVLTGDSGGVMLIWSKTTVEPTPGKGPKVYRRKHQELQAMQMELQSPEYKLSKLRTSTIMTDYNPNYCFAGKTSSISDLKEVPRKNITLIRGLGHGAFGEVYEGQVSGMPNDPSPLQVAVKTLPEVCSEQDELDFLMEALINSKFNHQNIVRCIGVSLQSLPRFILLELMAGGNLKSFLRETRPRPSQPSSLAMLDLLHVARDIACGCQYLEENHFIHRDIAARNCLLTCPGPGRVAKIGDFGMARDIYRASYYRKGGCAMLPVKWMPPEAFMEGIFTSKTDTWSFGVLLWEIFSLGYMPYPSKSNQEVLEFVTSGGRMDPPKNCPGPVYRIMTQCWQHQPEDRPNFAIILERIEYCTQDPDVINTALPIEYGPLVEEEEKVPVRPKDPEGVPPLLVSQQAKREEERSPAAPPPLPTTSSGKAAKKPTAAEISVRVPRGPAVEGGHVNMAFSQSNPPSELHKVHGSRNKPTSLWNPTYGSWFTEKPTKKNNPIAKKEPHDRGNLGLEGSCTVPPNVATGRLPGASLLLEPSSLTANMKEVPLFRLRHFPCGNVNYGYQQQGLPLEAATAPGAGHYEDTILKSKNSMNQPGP
Excerpt: as §1, §2, §3
(§4) TRKB selectivity was calculated by dividing a compound's TRKB potency by its primary target potency (e.g., ETV6-TRKB IC50/EML4-ALK v1 IC50). Compound selectivity can be interpreted by binning ratio values: bin A for very high selectivity, ratio≥30-fold; bin B for high selectivity, ratio≥10-fold but<30; bin C for moderate selectivity, ratio≥1 but<10; and bin D for low selectivity, ratio<1. […] (nd=not determined).
Additional exemplified compounds were also tested against ALK-INDN and TRKB. The TRKB selectivity was calculated by dividing a compound's TRKB potency by its primary target potency (e.g., ETV6-TRKB IC50/EMIL4-ALK I1171N-D1203N v1 IC50). Compound selectivity can be interpreted by binning ratio values: bin AA for the selectivity with the ratio≥30-fold; bin BB for the selectivity with the ratio≥10-fold but<30; bin CC for the selectivity with the ratio≥5 but<10; bin DD for the selectivity with the ratio≥1 but<5; and bin EE for the selectivity with the ratio<1.

[3] = target: Ba/F3 EML4-ALK v1 I1171N (Homo sapiens (Human), UniProt Q9HC35+Q9UM73, I1171N); assay: Ba/F3 cell proliferation assay, EML4-ALK v1 I1171N; settings: for IC50: Ba/F3 stable cells, 72 hours, CellTiter-Glo; for ETV6-TRKB / EML4-ALK v1 I1171N: TRKB selectivity, ratio of Ba/F3 IC50 values
Chain of Ba/F3 EML4-ALK v1 I1171N (Q9UM73 other isoform, or with tags, fused parts or gaps I1171N): as the sequence (Q9UM73 other isoform, or with tags, fused parts or gaps I1171N/D1203N) above, with N642D counted along it
Excerpt: as §1, §2, §3, §4

Chain of Ba/F3 ETV6-TRKB (Q16620 32-822 limits assumed, stated change not applied): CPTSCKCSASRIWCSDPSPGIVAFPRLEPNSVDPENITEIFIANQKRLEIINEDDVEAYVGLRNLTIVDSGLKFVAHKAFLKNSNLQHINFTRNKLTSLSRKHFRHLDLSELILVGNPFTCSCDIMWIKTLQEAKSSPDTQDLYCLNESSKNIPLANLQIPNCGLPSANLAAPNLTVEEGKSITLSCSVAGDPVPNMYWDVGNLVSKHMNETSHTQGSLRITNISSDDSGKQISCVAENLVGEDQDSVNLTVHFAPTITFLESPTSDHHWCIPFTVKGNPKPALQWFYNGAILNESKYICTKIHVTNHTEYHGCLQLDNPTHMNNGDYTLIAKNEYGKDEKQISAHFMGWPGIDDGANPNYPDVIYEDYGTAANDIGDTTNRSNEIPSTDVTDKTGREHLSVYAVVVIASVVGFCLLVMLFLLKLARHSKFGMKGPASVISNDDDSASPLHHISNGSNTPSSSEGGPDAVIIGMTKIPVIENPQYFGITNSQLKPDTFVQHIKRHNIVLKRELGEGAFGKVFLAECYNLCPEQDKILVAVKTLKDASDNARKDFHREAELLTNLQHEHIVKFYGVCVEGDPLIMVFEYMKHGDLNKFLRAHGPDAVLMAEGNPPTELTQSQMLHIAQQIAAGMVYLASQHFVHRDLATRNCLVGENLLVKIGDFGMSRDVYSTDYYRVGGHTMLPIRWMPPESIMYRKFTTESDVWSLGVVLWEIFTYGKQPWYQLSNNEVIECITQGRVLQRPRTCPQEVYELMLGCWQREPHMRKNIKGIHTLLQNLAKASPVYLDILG

Molecule	IC50 [1]	IC50 [2]	ETV6-TRKB / EML4-ALK v1 I1171N/D1203N [2]	IC50 [3]	ETV6-TRKB / EML4-ALK v1 I1171N [3]	Selectivity for Ba/F3 EML4-ALK v1 I1171N-D1203N IC50 over Ba/F3 ETV6-TRKB IC50 [2]
C[C@H]1Oc2cc(cnc2N)-c2c(c(C#N)nn2CC2CC2)Cc2cn(C)nc2-c2ccc(F)cc21 [Example 1, (19R)-22-amino-3-(cyclopropylmethyl)-16-fluoro-10,19-dimethyl-20-oxa-3,4,10,11,23-pentaazapentacyclo[19.3.1.0^2,6.0^8,12.0^13,18]pentacosa-1(24),2(6),4,8,11,13,15,17,21(25),22-decaene-5-carbonitrile]	> 0.5 µM	> 0.5 µM	C (bin C for moderate selectivity, ratio≥1 but<10)	0.05 to 0.5 µM	B (bin B for high selectivity, ratio≥10-fold but<30)	
CCn1ncc2c1-c1cnc(N)c(c1)O[C@H](C)c1cc(F)ccc1-c1ncccc1O2 [Example 14, (R)-3-ethyl-17-fluoro-20-methyl-7,21-dioxa-3,4,12,24-tetraazapentacyclo[20.3.1.0^2,^6.0^8,^13.0^14,^19]hexacosa-1(25),2(6),4,8(13),9,11,14,16,18,22(26),23-undecaen-23-ylamine]	0.0001 to 0.05 µM	0.05 to 0.5 µM		0.0001 to 0.05 µM		
CCn1ncc2c1-c1cnc(N)c(c1)O[C@H](C)c1cc(F)ccc1-c1nn(C)cc1C2=O [Example 15, (R)-22-amino-3-ethyl-16-fluoro-10-methyl-19-methyl-20-oxa-3,4,10,11,23-pentaazapentacyclo[19.3.1.0^2,^6.0^8,^12.0^13,^18]pentacosa-1(24),2(6),4,8,11,13,15,17,21(25),22-decaen-7-one]	0.05 to 0.5 µM	0.05 to 0.5 µM	C (bin C for moderate selectivity, ratio≥1 but<10)	> 0.5 µM	D (bin D for low selectivity, ratio<1)	DD (bin DD for the selectivity with the ratio≥1 but<5)
C[C@H]1Oc2cc(cnc2N)-c2c(nn(C)c2C#N)C(=O)c2cccnc2-c2c(F)cc(F)cc21 [Example 21, (R)-23-amino-15,17-difluoro-4-methyl-20-methyl-7-oxo-21-oxa-4,5,12,24-tetraazapentacyclo[20.3.1.0^2,^6.0^8,^13.0^14,^19]hexacosa-1(25),2,5,8,10,12,14,16,18,22(26),23-undecaene-3-carbonitrile]	0.05 to 0.5 µM	0.0001 to 0.05 µM	A (bin A for very high selectivity, ratio≥30-fold)	0.0001 to 0.05 µM	B (bin B for high selectivity, ratio≥10-fold but<30)	AA (bin AA for the selectivity with the ratio≥30-fold)
C[C@H]1Oc2cc(cnc2N)-c2c(nn(C)c2C#N)C(=O)c2cn(C)nc2-c2c(F)cc(F)cc21 [Example 26, (R)-22-amino-14,16-difluoro-4,10-dimethyl-19-methyl-7-oxo-20-oxa-4,5,10,11,23-pentaazapentacyclo[19.3.1.0^2,^6.0^8,^12.0^13,^18]pentacosa-1(24),2,5,8,11,13,15,17,21(25),22-decaene-3-carbonitrile]	> 0.5 µM	0.0001 to 0.05 µM	A (bin A for very high selectivity, ratio≥30-fold)	0.05 to 0.5 µM	A (bin A for very high selectivity, ratio≥30-fold)	AA (bin AA for the selectivity with the ratio≥30-fold)
Cc1cc2n(n1)-c1ccc(F)cc1[C@@H](C)Oc1cc(cnc1N)-c1c(c(C(=O)N(C)C)nn1C1CCC1)C2 [Example 67, N,N-dimethyl-(R)-22-amino-3-cyclobutyl-16-fluoro-10,19-dimethyl-20-oxa-3,4,11,12,23-pentaazapentacyclo[19.3.1.0^2,^6.0^8,^12.0^13,^18]pentacosa-1(24),2(6),4,8,10,13,15,17,21(25),22-decaene-5-carboxamide]	0.05 to 0.5 µM	0.0001 to 0.05 µM				
Cc1cc2n(n1)-c1c(F)cc(F)cc1[C@@H](C)Oc1cc(cnc1N)-c1c(nn(C)c1C#N)C2=O [Example 68, (R)-22-amino-14,16-difluoro-4-methyl-10,19-dimethyl-7-oxo-20-oxa-4,5,11,12,23-pentaazapentacyclo[19.3.1.0^2,^6.0^8,^12.0^13,^18]pentacosa-1(24),2,5,8,10,13,15,17,21(25),22-decaene-3-carbonitrile]	> 0.5 µM	0.05 to 0.5 µM				
Cc1cc2n(n1)-c1c(F)cc(F)cc1[C@@H](C)Oc1cc(cnc1N)-c1c(C#N)nn(C)c1C2=O [Example 69, (R)-22-amino-14,16-difluoro-5-methyl-10,19-dimethyl-7-oxo-20-oxa-4,5,11,12,23-pentaazapentacyclo[19.3.1.0^2,^6.0^8,^12.0^13,^18]pentacosa-1(24),2(6),3,8,10,13,15, 17,21(25),22-decaene-3-carbonitrile]	0.05 to 0.5 µM	0.0001 to 0.05 µM	B (bin B for high selectivity, ratio≥10-fold but<30)			
CC1Oc2cc(cnc2N)-c2c(c(C#N)nn2CC2CC2)Cc2cn(C)nc2-c2c(F)cc(F)cc21 (stereo not shown) [Example 70, 22-amino-3-(cyclopropylmethyl)-14,16-difluoro-10,19-dimethyl-20-oxa-3,4,10,11,23-pentaazapentacyclo[19.3.1.0^2,^6.0^8,^12.0^13,^18]pentacosa-1(24),2(6),4,8,11,13,15,17,21(25),22-decaene-5-carbonitrile]	> 0.5 µM	> 0.5 µM	C (bin C for moderate selectivity, ratio≥1 but<10)			
Cc1nc2c(s1)C(=O)c1c(c(C#N)nn1C)-c1cnc(N)c(c1)O[C@H](C)c1cc(F)ccc1-2 [Example 74, (R)-22-amino-16-fluoro-5-methyl-10,19-dimethyl-7-oxo-20-oxa-9-thia-4,5,11,23-tetraazapentacyclo[19.3.1.0^2,^6.0^8,^12.0^13,^18]pentacosa-1(24),2(6),3,8(12),10,13,15,17,21(25),22-decaene-3-carbonitrile]	> 0.5 µM	0.05 to 0.5 µM	C (bin C for moderate selectivity, ratio≥1 but<10)			CC (bin CC for the selectivity with the ratio≥5 but<10)
C[C@H]1Oc2nc(cnc2N)-c2c(nn(C)c2C#N)C(=O)c2cccnc2-c2ccc(F)cc21 [Example 75, (R)-23-amino-17-fluoro-4-methyl-20-methyl-7-oxo-21-oxa-4,5,12,24,26-pentaazapentacyclo[20.3.1.0^2,^6.0^8,^13.0^14,^19]hexacosa-1(25),2,5,8(13),9,11,14,16,18,22(26),23-undecaene-3-carbonitrile]	0.0001 to 0.05 µM	0.0001 to 0.05 µM	A (bin A for very high selectivity, ratio≥30-fold)			
C[C@H]1Oc2cc(cnc2N)-c2c(C#N)nn(C)c2C(O)c2cn(C)nc2-c2c(F)cc(F)cc21 (stereo partly drawn) [Example 79, (19R)-22-amino-14,16-difluoro-7-hydroxy-5,10-dimethyl-19-methyl-20-oxa-4,5,10,11,23-pentaazapentacyclo[19.3.1.0^2,^6.0^8,^12.0^13,^18]pentacosa-1(24),2(6),3,8,11,13,15,17,21(25),22-decaene-3-carbonitrile]	> 0.5 µM	0.05 to 0.5 µM	C (bin C for moderate selectivity, ratio≥1 but<10)			
(7S,20R)-23-amino-17-fluoro-7-hydroxy-4-methyl-20-methyl-21-oxa-4,5,12,24-tetraazapentacyclo[20.3.1.0^2,6.0^8,13.0^14,19]hexacosa-1(25),2,5,8(13),9,11,14,16,18,22(26),23-undecaene-3-carbonitrile [Example 78]	> 0.5 µM	0.05 to 0.5 µM	B (bin B for high selectivity, ratio≥10-fold but<30)			
(R)-22-amino-14,16-difluoro-4-methyl-10,19-dimethyl-7-oxo-20-oxa-9-thia-4,5,11,23-tetraazapentacyclo[19.3.1.0^2,6.0^8,12.0^13,18]pentacosa-1(24),2,5,8(12),10,13,15,17,21(25),22-decaene-3-carbonitrile [Example 80]	0.05 to 0.5 µM	0.0001 to 0.05 µM	B (bin B for high selectivity, ratio≥10-fold but<30)			
